We go through 32 compounds from US10703764B2, “Benzopiperazine compositions as BET bromodomain inhibitors” (FORMA Therapeutics, Inc., priority 2013, dated 2020).

Like-named read-outs stand apart in the source and are kept apart here.

The target in assay [1] is T1, BRD4 BD2 (Homo sapiens, UniProt O60885).
T1 construct: made in house
The assay is described as follows: AlphaScreen binding assay, BRD4 Bromodomain 2. The essentials:
(§1)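 Compound dilution series were mixed with His-tagged BRD4 bromodomain and biotinylated tetra-acetylated H4 (1-21) peptide at pH 7.3 (BD1 and peptide at 50 nM, BD2 and peptide at 100 nM). Donor and acceptor beads were then added, and plates were equilibrated at least 1 h before reading. IC50 values were fitted with a four-parameter logistic model.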

Assay [2] concerns MV4-11 cells. In words: Oncology cell growth assay (3-day proliferation, CellTiter-Glo). The class given is cell-based. The settings on record: Homo sapiens, AML cell line MV4-11, 72 hours, compounds grouped by IC50 range, read-out: MV4-11 IC50 (inhibition of proliferation, gIC50). In short, it runs like this:
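MV4-11 AML cells (RPMI 1640, 10% FBS) plated at 3000 cells/well and exposed 72 h to compound at final 10 to 0.0045 μM (3-fold series). Viability read by CellTiter-Glo luminescence; gIC50 from four-parameter logistic fit between DMSO control and no-cell background.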

Assay [3] concerns the target T2, BRD4 BD1 (Homo sapiens, UniProt O60885).
T2 construct: made in house
In words: AlphaScreen binding assay, BRD4 Bromodomain 1. In short, it runs like this:
as §1

With `CC(=O)N1c2ccc(-c3ccc4ncccc4c3)cc2N(C(=O)COc2ccccc2)C[C@@H]1C` [Example I-791], the IC50 in assay [1] is 50 to 500 nM; in assay [2] (MV4-11, 72 h) it was greater than 500 nM; in assay [3], 1000 to 10000 nM.

Take `COC(=O)N1c2ccc(-c3ccc(C(=O)N(C)CC(=O)N(C)C)cc3)cc2N(C(=O)OC(C)C)C[C@@H]1C` [Example I-561]: the IC50 is 50 to 500 nM in assay [1]; 100 to 500 nM in assay [2] (MV4-11, 72 h); less than 100 nM in assay [3].

Regarding `CC(=O)N1c2ccc(-c3cccc(S(=O)(=O)NCCO)c3)cc2N(C(=O)OC2CCCCC2)C[C@@H]1C` [Example I-1255], the IC50 was in the range of 50 to 500 nM in assay [1]; 100 to 500 nM in assay [2] (MV4-11, 72 h); 100 to 1000 nM in assay [3].

Take `CCOC(=O)N1C[C@H](C)N(C(C)=O)c2ccc(-c3ccc(OC)c(S(=O)(=O)N(CC)CC)c3)cc21` [Example I-1114]: the IC50 in assay [1] is 50 to 500 nM; in assay [2] (MV4-11, 72 h), greater than 500 nM; in assay [3] it was 100 to 1000 nM.

Consider `CC(=O)N1c2ccc(-c3ccc(S(=O)(=O)n4cccn4)cc3)cc2N(C(=O)OC2CCCCC2)C[C@@H]1C` [Example I-1259], for which the IC50 in assay [1] lay in the range of 50 to 500 nM; in assay [2] (MV4-11, 72 h), 100 to 500 nM; in assay [3], 100 to 1000 nM.

Take `CCNC(=O)Cn1cc(-c2ccc3c(c2)N(C(=O)OC(C)C)C[C@H](C)N3C(C)=O)cn1` [Example I-664]: the IC50 in assay [1] lay within 50 to 500 nM; in assay [2] (MV4-11, 72 h) it was 100 to 500 nM; in assay [3], 100 to 1000 nM.

For the compound `CC(=O)N1c2ccc(-c3ccc(S(C)(=O)=O)cc3)cc2N(C(=O)Oc2ccccc2Cl)C[C@@H]1C` [Example I-225], the IC50 in assay [1] is less than 50 nM; in assay [2] (MV4-11, 72 h), less than 100 nM; in assay [3] it was 100 to 1000 nM.

Turning to `CC(=O)N1c2ccc(-c3cnn(CC4(C)COC4)c3)cc2N(C(=O)C2CC2)C[C@@H]1C` [Example I-124, (S)-1-(4-(cyclopropanecarbonyl)-2-methyl-6-(1-((3-methyloxetan-3-yl)methyl)-1H-pyrazol-4-yl)-3,4-dihydroquinoxalin-1(2H)-yl)ethanone], the IC50 in assay [1] was less than 50 nM; in assay [2] (MV4-11, 72 h), 100 to 500 nM; in assay [3] it was 1000 to 10000 nM.

For `COc1ccc(OC(=O)N2C[C@H](C)N(C(C)=O)c3ccc(-c4cnn(C5COC5)c4)cc32)cc1` [Example I-87, (S)-4-methoxyphenyl 4-acetyl-3-methyl-7-(1-(oxetan-3-yl)-1H-pyrazol-4-yl)-3,4-dihydroquinoxaline-1(2H)-carboxylate], the IC50 is less than 50 nM in assay [1]; less than 100 nM in assay [2] (MV4-11, 72 h); less than 100 nM in assay [3].

For `CC(=O)N1c2ccc(-c3ccc4c(c3)CCCN4S(C)(=O)=O)cc2N(C(=O)C2CC2)C[C@@H]1C` [Example I-1157], the IC50 was less than 50 nM in assay [1]; 100 to 500 nM in assay [2] (MV4-11, 72 h); 100 to 1000 nM in assay [3].

For the compound `CC(=O)N1c2ccc(-c3ccc(C(=O)NCc4ncco4)cc3)cc2N(C(=O)OC(C)C)C[C@@H]1C` [Example I-584], the IC50 in assay [1] was in the range of 50 to 500 nM; in assay [2] (MV4-11, 72 h), 100 to 500 nM; in assay [3], 100 to 1000 nM.

Regarding `CC(=O)N1c2ccc(-c3cnn(CCN(C)C)c3)cc2N(C(=O)OC(C)C)C[C@@H]1C` [Example I-129, (S)-isopropyl 4-acetyl-7-(1-(2-(dimethylamino)ethyl)-1H-pyrazol-4-yl)-3-methyl-3,4-dihydroquinoxaline-1(2H)-carboxylate], the IC50 fell in the range of 50 to 500 nM in assay [1]; 100 to 500 nM in assay [2] (MV4-11, 72 h); 1000 to 10000 nM in assay [3].

Consider `CC(=O)N1c2ccc(-c3cnn(CC4(F)COC4)c3)cc2N(C(=O)OC(C)C)C[C@@H]1C` [Example I-133, (S)-isopropyl 4-acetyl-7-(1-((3-fluorooxetan-3-yl)methyl)-1H-pyrazol-4-yl)-3-methyl-3,4-dihydroquinoxaline-1(2H)-carboxylate], for which the IC50 in assay [1] was in the range of 50 to 500 nM; in assay [2] (MV4-11, 72 h) it was 100 to 500 nM; in assay [3], 100 to 1000 nM.

Regarding `CC(=O)N1c2ccc(-c3ccc(CS(N)(=O)=O)cc3)cc2N(C(=O)C2CC2)C[C@@H]1C` [Example I-445], the IC50 in assay [1] was 50 to 500 nM; in assay [2] (MV4-11, 72 h), 100 to 500 nM; in assay [3], 100 to 1000 nM.

Turning to `CC(=O)N1c2ccc(-c3ccc(S(C)(=O)=O)cc3)cc2N(c2n[nH]c3ccccc23)C[C@@H]1C` [Example I-94, (S)-1-(4-(1H-indazol-3-yl)-2-methyl-6-(4-(methylsulfonyl)phenyl)-3,4-dihydroquinoxalin-1 (2H)-yl)ethan-1-one], the IC50 was 50 to 500 nM in assay [1]; less than 100 nM in assay [2] (MV4-11, 72 h); 100 to 1000 nM in assay [3].

For the compound `CC(=O)N1c2ccc(-c3cnn(C4CCC4)c3)cc2N(C(=O)OC2CCCC2)C[C@@H]1C` [Example I-25, (S)-cyclopentyl 4-acetyl-7-(1-cyclobutyl-1H-pyrazol-4-yl)-3-methyl-3,4-dihydroquinoxaline-1(2H)-carboxylate], the IC50 was less than 50 nM in assay [1]; less than 100 nM in assay [2] (MV4-11, 72 h); less than 100 nM in assay [3].

For `CC(=O)N1c2ccc(-c3ccc(S(=O)(=O)N(C)C)cc3)cc2N(C(=O)C2CCC2)C[C@@H]1C` [Example I-1124], the IC50 is 50 to 500 nM in assay [1]; 100 to 500 nM in assay [2] (MV4-11, 72 h); 1000 to 10000 nM in assay [3].

As to `CC(=O)N1c2cc(Cl)c(-c3ccc(S(C)(=O)=O)cc3)cc2N(C(=O)OC(C)C)C[C@@H]1C` [Example I-218, Isopropyl (S)-4-acetyl-6-chloro-3-methyl-7-(4-(methylsulfonyl)phenyl)-3,4-dihydroquinoxaline-1(2H)-carboxylate], the IC50 in assay [1] is greater than 500 nM; in assay [2] (MV4-11, 72 h), greater than 500 nM; in assay [3], 1000 to 10000 nM.

Regarding `CC(=O)N1c2ccc(-c3ccc(F)c(S(C)(=O)=O)c3)cc2N(C(=O)OC2CCCCC2)C[C@@H]1C` [Example I-1249], the IC50 in assay [1] lay in the range of 50 to 500 nM; in assay [2] (MV4-11, 72 h), 100 to 500 nM; in assay [3], 1000 to 10000 nM.

With `CC(=O)N1c2ccc(-c3ccc(CN4CCCS4(=O)=O)cc3)cc2N(C(=O)c2ccco2)C[C@@H]1C` [Example I-427], the IC50 in assay [1] is less than 50 nM; in assay [2] (MV4-11, 72 h) it was 100 to 500 nM; in assay [3], 100 to 1000 nM.

Take `CC(=O)N1c2cc(F)c(-c3ccc(S(C)(=O)=O)cc3)cc2N(C(=O)OC(C)C)C[C@@H]1C` [Example I-196, Isopropyl (S)-4-acetyl-6-fluoro-3-methyl-7-(4-(methylsulfonyl)phenyl)-3,4-dihydroquinoxaline-1(2H)-carboxylate]: the IC50 in assay [1] was greater than 500 nM; in assay [2] (MV4-11, 72 h), greater than 500 nM; in assay [3], 1000 to 10000 nM.

For `CCS(=O)(=O)Nc1ccc(-c2ccc3c(c2)N(C(=O)OC(C)C)C[C@H](C)N3C(C)=O)cc1` [Example I-1138], the IC50 in assay [1] was 50 to 500 nM; in assay [2] (MV4-11, 72 h), 100 to 500 nM; in assay [3] it was 100 to 1000 nM.

As to `CC(=O)N1c2ccc(-c3cnn(C4CCNCC4)c3)cc2N(C(=O)Oc2ccc(F)cc2F)C[C@@H]1C` [Example I-191, 2,4-difluorophenyl (S)-4-acetyl-3-methyl-7-(1-(piperidin-4-yl)-1H-pyrazol-4-yl)-3,4-dihydroquinoxaline-1(2H)-carboxylate], the IC50 in assay [1] was less than 50 nM; in assay [2], 100 to 500 nM; in assay [3], 100 to 1000 nM.

In the case of `CC(=O)N1c2ccc(-c3ccc(S(=O)(=O)CC4CC4)cc3)cc2N(C(=O)OC(C)C)C[C@@H]1C` [Example I-1077], the IC50 in assay [1] lay in the range of 50 to 500 nM; in assay [2] (MV4-11, 72 h), 100 to 500 nM; in assay [3], 1000 to 10000 nM.

For `COc1cc(-c2ccc3c(c2)N(C(=O)c2ccco2)C[C@H](C)N3C(C)=O)ccn1` [Example I-863], the IC50 was 50 to 500 nM in assay [1]; greater than 500 nM in assay [2] (MV4-11, 72 h); 1000 to 10000 nM in assay [3].

Consider `CC(=O)N1c2ccc(-c3cnn(C4CC4)c3)cc2N(C(=O)OC2CCOCC2)C[C@@H]1C` [Example I-1000], for which the IC50 in assay [1] was 50 to 500 nM; in assay [2] (MV4-11, 72 h), 100 to 500 nM; in assay [3], less than 100 nM.

With `CC(C)OC(=O)N1C[C@H](C)N(C(=O)C2CC2)c2ccc(-c3ccc(C(=O)N4CC[C@H](N(C)C)C4)cc3)cc21` [Example I-566], the IC50 was 50 to 500 nM in assay [1]; 100 to 500 nM in assay [2] (MV4-11, 72 h); 100 to 1000 nM in assay [3].

As for `CC(=O)N1c2ccc(-c3ccc(C(=O)N4CCNCC4)cc3)cc2N(C(=O)OC2CCOCC2)C[C@@H]1C` [Example I-498], the IC50 in assay [1] lay within 50 to 500 nM; in assay [2] (MV4-11, 72 h), 100 to 500 nM; in assay [3], 100 to 1000 nM.

On to `CC(=O)N1c2ccc(-c3cnn(CCO)c3)cc2N(C(=O)OC2CC(F)(F)C2)C[C@@H]1C` [Example I-27, (S)-3,3-difluorocyclobutyl 4-acetyl-7-(1-(2-hydroxyethyl)-1H-pyrazol-4-yl)-3-methyl-3,4-dihydroquinoxaline-1(2H)-carboxylate], for which the IC50 in assay [1] lay within 50 to 500 nM; in assay [2] (MV4-11, 72 h), 100 to 500 nM; in assay [3], 100 to 1000 nM.

Take `CC(=O)N1c2ccc(-c3cnn(CCS(C)(=O)=O)c3)cc2N(C(=O)OC(C)C)C[C@@H]1C` [Example I-303]: the IC50 in assay [1] is 50 to 500 nM; in assay [2] (MV4-11, 72 h), 100 to 500 nM; in assay [3], less than 100 nM.

Consider `CC(=O)N1c2ccc(-c3cc(N4CCCS4(=O)=O)cc(C(F)(F)F)c3)cc2N(C(=O)OC(C)C)C[C@@H]1C` [Example I-1166], for which the IC50 in assay [1] is 50 to 500 nM; in assay [2] (MV4-11, 72 h) it was greater than 500 nM; in assay [3], 100 to 1000 nM.

Regarding `CC(=O)N1c2ccc(-c3cccc(NS(=O)(=O)N(C)C)c3)cc2N(C(=O)C2CC2)C[C@@H]1C` [Example I-1143], the IC50 in assay [1] is 50 to 500 nM; in assay [2] (MV4-11, 72 h), 100 to 500 nM; in assay [3], 1000 to 10000 nM.
